Biological target: T1, GCase (GBA) in human fibroblast cell line GM10915 harboring the L444P GBA mutation (Homo sapiens, UniProt P04062, L483P)
T1 construct: Human fibroblast cell line GM10915 harboring the L444P GBA mutation; host or cells: GM10915 human fibroblasts
T1 sequence (P04062 40-536 L483P): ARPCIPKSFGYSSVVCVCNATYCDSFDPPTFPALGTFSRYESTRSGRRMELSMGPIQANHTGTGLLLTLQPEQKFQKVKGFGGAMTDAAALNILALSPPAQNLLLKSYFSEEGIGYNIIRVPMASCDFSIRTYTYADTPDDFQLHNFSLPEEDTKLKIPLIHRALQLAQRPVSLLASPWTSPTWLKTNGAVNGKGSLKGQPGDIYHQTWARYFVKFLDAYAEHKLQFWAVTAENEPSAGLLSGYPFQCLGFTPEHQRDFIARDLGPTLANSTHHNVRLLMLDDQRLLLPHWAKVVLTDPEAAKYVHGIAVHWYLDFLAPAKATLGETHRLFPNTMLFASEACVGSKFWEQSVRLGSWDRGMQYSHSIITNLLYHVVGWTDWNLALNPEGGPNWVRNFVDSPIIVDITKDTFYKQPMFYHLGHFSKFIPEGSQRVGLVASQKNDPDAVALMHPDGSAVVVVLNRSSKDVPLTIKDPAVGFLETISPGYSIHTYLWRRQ
Assay: GCase activity assay (4-MUG substrate, normalised to crystal violet staining) in L444P GBA fibroblasts
Assay type: cell-based
Conditions: 5 days exposure; for GBA EC1.5: concentration giving 150% GCase activity (1.5-fold induction), 8-point dose range; for Emax: maximum percent GCase activity relative to untreated cells in the dose range tested
Summary of the method: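 Patient fibroblasts GM10915 (L444P GBA) exposed to compounds for five days over an 8-point range, with fresh dosing every 2–3 days. Intact-cell GCase measured with 2.5 mM 4-MUG at pH 4.0 for 23 h at 37 °C (ex/em 365/445 nm), normalised to crystal violet, as % of PBS basal; Emax is the maximum reached.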

Row | GBA EC1.5 [µM] | Emax [%] | Structure (SMILES)
1 | 38 | 198 | NC(=O)CN1CCCC(C2=NOCC(CN3CCCCC3)O2)C1 (racemic) [compound 711, rac-2-(3-(5-(piperidin-1-ylmethyl)-5,6-dihydro-1,4,2-dioxazin-3-yl)piperidin-1-yl)acetamide]
2 | 5 | 180 | CC1(C)CC(C2=NOCC(CN3CCCCC3)O2)CCN1 (racemic) [compound 705, rac-3-(2,2-dimethyl-4-piperidyl)-5-(1-piperidylmethyl)-5,6-dihydro-1,4,2-dioxazine]
3 | 4 | 341 | C1CCN(CC2CON=C(C34CCCN(CC3)C4)O2)CC1 (racemic) [compound 553, rac-3-(1-azabicyclo[3.2.1]octan-5-yl)-5-(piperidin-1-ylmethyl)-5,6-dihydro-1,4,2-dioxazine]
